System: Hedgehog pathway
Assay: C3H10T1/2 differentiation assay (alkaline phosphatase), inhibition of the Hedgehog pathway in cell culture
Assay type: cell-based
Conditions: Mus musculus, C3H 10T1/2, read-out: Differentiation Assay EC50 (Approximate EC50 for Inhibition)
From the text: Hedgehog pathway specific cancer cell killing effects may be ascertained using the following assay. C3H10T1/2 cells differentiate into osteoblasts when contacted with the sonic hedgehog peptide (Shh-N). Upon differentiation; these osteoblasts produce high levels of alkaline phosphatase (AP) which can be measured in an enzymatic assay (Nakamura et al., 1997 BBRC 237: 465). Compounds that block the differentiation of C3H10T1/2 into osteoblasts (a Shh dependent event) can therefore be identified by a reduction in AP production (van der Horst et al., 2003 Bone 33: 899). The assay details are described below. The results approximate (EC50 for inhibition) of the differentiation assay is shown below in Table 1.
Mouse embryonic mesoderm fibroblasts C3H10T1/2 cells (obtained from ATCC) were cultured in Basal MEM Media (Gibco/Invitrogen) supplemented with 10% heat inactivated FBS (Hyclone), 50 units/ml penicillin and 50 ug/ml streptomycin (Gibco/Invitrogen) at 37 C with 5% CO2 in air atmosphere.
C3H10T1/2 cells were plated in 96 wells with a density of 8×10^3 cells/well. Cells were grown to confluence (72 hrs). After sonic Hedgehog (250 ng/ml), (R&D Systems) and/or compound treatment, the cells were lysed in 110 µl of lysis buffer (50 mM Tris pH 7.4, 0.1% TritonX100), plates were sonicated and lysates spun through 0.2 um PVDF plates (Corning). 40 ul of lysates was assayed for AP activity in alkaline buffer solution (Sigma) containing 1 mg/ml p-Nitrophenyl Phosphate. After incubating for 30 min at 37 C, the plates were read on an Envision plate reader at 405 nm. Total protein was quantified with a BCA protein assay kit from Pierce according to manufacturer's instructions. AP activity was normalized against total protein.

SMILES | EC50
C[C@@H]1CN[C@H]2[C@@H](C)[C@@]3(CC[C@H]4[C@@H]5CC=C6C[C@@H](O)CC[C@]6(C)[C@H]5CC45CC53C)O[C@@H]2C1 (some centres unmarked) [Compound 1] | > 500 nM
C[C@@H]1CN[C@H]2[C@@H](C)[C@@]3(CC[C@H]4[C@@H]5CCC6=CC(=O)CC[C@]6(C)[C@H]5CC45CC53C)O[C@@H]2C1 (some centres unmarked) [Compound 11] | > 500 nM
CC1=C2C[C@H]3[C@@H](CC=C4C[C@@H](O)CC[C@@]43C)[C@@H]2CC[C@@]2(C1)O[C@@H]1C[C@H](C)CN[C@H]1[C@H]2C [Compound 19] | 200 to 500 nM
CC1=C2C[C@H]3[C@@H](CC=C4C[C@@H](O)CC[C@@]43C)[C@@H]2CC[C@@]2(C1)O[C@@H]1C[C@H](C)CN(C)[C@H]1[C@H]2C [Compound 20] | > 500 nM
CC1=C2C[C@H]3[C@@H](CCC4=CC(=O)CC[C@@]43C)[C@@H]2CC[C@@]2(C1)O[C@@H]1C[C@H](C)CN(CCNC(=O)CCc3ccccc3)[C@H]1[C@H]2C [Compound 21] | < 200 nM
CC1=C2C[C@H]3[C@@H](CC=C4C[C@@H](O)CC[C@@]43C)[C@@H]2CC[C@@]2(C1)O[C@@H]1C[C@H](C)CN(CCNC(=O)CNC(=O)CCc3ccccc3)[C@H]1[C@H]2C [Compound 30] | < 200 nM
CC1=C2C[C@H]3[C@@H](CCC4=CC(=O)CC[C@@]43C)[C@@H]2CC[C@@]2(C1)O[C@@H]1C[C@H](C)CN(CCO)[C@H]1[C@H]2C [Compound 39] | > 500 nM
CC1=C2C[C@H]3[C@@H](CCC4=CC(=O)CC[C@@]43C)[C@@H]2CC[C@@]2(C1)O[C@@H]1C[C@H](C)CN(CCN(C)C)[C@H]1[C@H]2C [Compound 45] | 200 to 500 nM

Same assay, conditions: Mus musculus, C3H 10T1/2; C3H10T1/2 cells, sonic Hedgehog 250 ng/ml, AP activity normalized against total protein; approximate; read-out: Differentiation Assay EC50 (Approximate EC50 for Inhibition)

SMILES | EC50
C[C@H]1C[C@H]2O[C@]3(CC[C@H]4[C@@H]5CC=C6C[C@@H](O)CC[C@]6(C)[C@H]5CC45CC53C)[C@H](C)[C@@H]2N(CCNC(=O)CCCCCNC(=O)CCc2ccccc2)C1 (some centres unmarked) [Compound 4] | < 200 nM
C[C@H]1C[C@H]2O[C@]3(CC[C@H]4[C@@H]5CCC6=CC(=O)CC[C@]6(C)[C@H]5CC45CC53C)[C@H](C)[C@@H]2N(CCNC(=O)CCCCCNC(=O)CCc2ccccc2)C1 (some centres unmarked) [Compound 17] | < 200 nM
CC1=C2C[C@H]3[C@@H](CCC4=CC(=O)CC[C@@]43C)[C@@H]2CC[C@@]2(C1)O[C@@H]1C[C@H](C)CN[C@H]1[C@H]2C [Compound 18] | < 200 nM
CC1=C2C[C@H]3[C@@H](CCC4=CC(=O)CC[C@@]43C)[C@@H]2CC[C@@]2(C1)O[C@@H]1C[C@H](C)CN(CCNS(=O)(=O)CCc3ccccc3)[C@H]1[C@H]2C [Compound 24] | 200 to 500 nM
CC1=C2C[C@H]3C(CC=C4C[C@@H](O)CC[C@@]43C)[C@@H]2CC[C@@]2(C1)O[C@@H]1C[C@H](C)CN(CCCl)[C@H]1[C@H]2C (some centres unmarked) [Compound 27] | > 500 nM
CC1=C2C[C@H]3C(CCC4=CC(=O)CC[C@@]43C)[C@@H]2CC[C@@]2(C1)O[C@@H]1C[C@H](C)CN(CCCl)[C@H]1[C@H]2C (some centres unmarked) [Compound 28] | > 500 nM
COCCOCCN1C[C@@H](C)C[C@H]2O[C@]3(CC[C@@H]4C(=C(C)C3)C[C@H]3C4CCC4=CC(=O)CC[C@@]43C)[C@H](C)[C@@H]21 (some centres unmarked) [Compound 29] | < 200 nM
COCCOCCOCCOCCN1C[C@@H](C)C[C@H]2O[C@]3(CC[C@@H]4C(=C(C)C3)C[C@H]3[C@H]4CCC4=CC(=O)CC[C@@]43C)[C@H](C)[C@@H]21 [Compound 31] | < 200 nM
COCCOCCOCCN1C[C@@H](C)C[C@H]2O[C@]3(CC[C@@H]4C(=C(C)C3)C[C@H]3[C@H]4CCC4=CC(=O)CC[C@@]43C)[C@H](C)[C@@H]21 [Compound 33] | < 200 nM
CC1=C2C[C@H]3[C@@H](CCC4=CC(=O)CC[C@@]43C)[C@@H]2CC[C@@]2(C1)O[C@@H]1C[C@H](C)CN(Cc3ccccc3)[C@H]1[C@H]2C [Compound 35] | < 200 nM
CC1=C2C[C@H]3[C@@H](CCC4=CC(=O)CC[C@@]43C)[C@@H]2CC[C@@]2(C1)O[C@@H]1C[C@H](C)CN(Cc3ccc(Oc4ccccc4)cc3)[C@H]1[C@H]2C [Compound 37] | > 500 nM
COCCOCCN1C[C@@H](C)C[C@H]2O[C@]3(CC[C@@H]4C(=C(C)C3)C[C@H]3[C@H]4CCC4=CC(=O)CC[C@@]43C)[C@H](C)[C@@H]21 [Compound 41] | < 200 nM
CC1=C2C[C@H]3[C@@H](CCC4=CC(=O)CC[C@@]43C)[C@@H]2CC[C@@]2(C1)O[C@@H]1C[C@H](C)CN(CCOCCOCc3ccccc3)[C@H]1[C@H]2C [Compound 43] | 200 to 500 nM
CC1=C2C[C@H]3[C@@H](CCC4=CC(=O)CC[C@@]43C)[C@@H]2CC[C@@]2(C1)O[C@@H]1C[C@H](C)CN(CC(=O)NCCCc3ccccc3)[C@H]1[C@H]2C [Compound 47] | 200 to 500 nM

System: psoriasis lesions
Assay: not given
Conditions: topical application; Tas et al., 2004 Dermatology 209: 126-131; cited from earlier work

SMILES | effect on psoriasis lesions
CC1=C2C[C@H]3[C@@H](CC=C4C[C@@H](O)CC[C@@]43C)[C@@H]2CC[C@]12O[C@@H]1C[C@H](C)CN[C@H]1[C@H]2C [cyclopamine] | full or partial regression of the lesion

From patent publication US8236956B2, “Cyclopamine analogues and methods of use thereof” (Infinity Pharmaceuticals, Inc., priority 2004, dated 2012)
